Assay results taken from PMC6100633, “Design, Synthesis, and Evaluation of a New Series of Thiazole-Based Anticancer Agents as Potent Akt Inhibitors” (Molecules : A Journal of Synthetic Chemistry and Natural …, 2018).
In brackets after ≈: the same amount, converted by molar mass.

Tests used:
[1] = tested on: A549 human lung adenocarcinoma cell line; assay: MTT assay, A549 cells; assay type: cell-based; settings: for IC50: Homo sapiens, A549, 24 h
Method: (§1) C6 Rat glioma and NIH/3T3 mouse embryonic fibroblast cells were incubated in Dulbecco’s Modified Eagle’s Medium (DMEM) (Sigma, Deisenhofen, Germany) supplemented with 10% fetal calf serum (Gibco, Paisley, UK). A549 Human lung adenocarcinoma cells were incubated in 90% RPMI supplemented with 10% fetal bovine serum (Gibco, Paisley, UK). All media were supplemented with 100 IU/mL penicillin-streptomycin (Gibco, Paisley, UK) and the cells were incubated at 37 °C in a humidified atmosphere of 95% air and 5% CO2. Exponentially growing cells were plated at 2 × 10^4 cells/mL into 96-well microtiter tissue culture plates (Nunc, Roskilde, Denmark) and incubated for 24 h before the addition of the drugs (the optimum cell number for cytotoxicity assays was determined in preliminary experiments). The stock solutions of the compounds were prepared in dimethyl sulfoxide (DMSO; Sigma Aldrich, Poole, UK) and further dilutions were made with fresh culture medium (the concentration of DMSO in the final culture medium was <0.1% which had no effect on the cell viability).
(§2) The level of cellular 3-(4,5-dimethylthiazol-2-yl)-2,5-diphenyltetrazolium bromide (MTT) (Sigma-Aldrich, St. Louis, MO, USA) reduction was quantified as previously described in the literature with small modifications. […] At the end of this period, MTT was added to a final concentration of 0.5 mg/mL and the cells were incubated for 4 h at 37 °C. After the medium was removed, the formazan crystals formed by MTT metabolism were solubilized by addition of 200 µL DMSO to each well and absorbance was read at 540 nm with a microtiter plate spectrophotometer (BioTek Plate Reader, Winooski, VT, USA). Every concentration was repeated in three wells.

C6 cells = assay: Annexin V FITC/PI flow cytometric analysis of apoptosis, C6 cells; assay type: cell-based, rat; settings: for Early Apoptotic Cells% / Late Apoptotic Cells% / Viable Cells%: C6 cells, 24 h, compounds at IC50 values; for early and late apoptotic cell population: C6 cell line, sum of early and late apoptotic cells
Method: (§3) Annexin V staining protocol was applied according to the manufacturer’s instructions (BD Pharmingen, San Jose, CA, USA). The cells were then briefly washed with cold phosphate buffer saline (PBS) and suspended in a binding buffer at a concentration of 1 × 10^6 cells/mL. Then, 100 µL of this solution containing 1 × 10^5 cells was transferred to a 5 mL test tube. After 5 µL of Annexin V and PI was added, the cells were incubated for 15 min at room temperature in the dark. Then 400 µL of 1× binding buffer was added to each tube and the cells were processed for data acquisition, and analyzed on a BD FACSAria flow cytometer using FACSDiva version 6.1.1 software (BD Biosciences, San Jose, CA, USA).

Akt [2] = assay: In cell ELISA colorimetric Akt activity, C6 cells; assay type: cell-based, rat; settings: compounds at IC50 concentrations for 24 h
Method: (§4) Briefly, the media was removed and 100 µL of 4% formaldehyde was added to each well. The plate was incubated in a fume hood at room temperature for 15 min. Formaldehyde was removed and the plate was washed twice with 100 µL/well of 1× TBS. Then, 1× TBS was removed, 100 µL/well of 1× permeabilization buffer was added and incubated for 15 min at room temperature. The permeabilization buffer was removed and the plate was washed once with 100 µL/well of 1× TBS. Then, 1× TBS was removed, 100 µL/well quenching solution was added and incubated at room temperature for 20 min. Quenching solution was removed and the plate was washed once with 100 µL/well of 1× TBS. Then, 1× TBS was removed and 100 µL/well of blocking buffer was added and incubated at room temperature for 30 min. After the blocking buffer was removed, 50 µL/well of primary antibody was added. A plate sealer was applied and incubated overnight at 4 °C. The primary antibody solution was removed and the plate was washed three times with 100 µL/well of 1× wash Buffer. After the wash buffer was removed, 100 µL/well of diluted HRP conjugate was added and incubated for 30 min at room temperature. The wash buffer was removed and 100 µL/well of TMB substrate was added. The plate was then incubated at room temperature, protected from light. 100 µL/well of TMB stop solution was added and the absorbance was measured at 450 nm within 30 min of stopping the reaction. The experiment was performed in triplicate wells. The values of blank wells were subtracted from each well of treated and control cells. Percent Akt activity was defined as the relative absorbance of treated versus untreated control cells.

[3] = tested on: NIH/3T3 mouse embryonic fibroblast cell line; assay: MTT assay, NIH/3T3 cells (healthy); assay type: cell-based; settings: NIH3T3, 24 h
Method: as §1, with “viability). The level of cellular 3-(4,5-dimethylthiazol-2-yl)-2,5-diphenyltetrazolium bromide (MTT) (Sigma-Aldrich, St. Louis, MO, USA) reduction was quantified as previously described in the literature with small modifications. […] At the end of this period, MTT was added to a final concentration of 0.5 mg/mL and the cells were incubated for 4 h at 37 °C. After the medium was removed, the formazan crystals formed by MTT metabolism were solubilized by addition of 200 µL DMSO to each well and absorbance was read at 540 nm with a microtiter plate spectrophotometer (BioTek Plate Reader, Winooski, VT, USA). Every concentration was repeated in three wells.” for “viability).”

C6 rat glioma cell line = assay: MTT assay, C6 cells; assay type: cell-based; settings: for IC50: Rattus norvegicus, C6, 24 h
Method: as §1, §2

Akt [4] = assay: In cell ELISA colorimetric Akt activity, A549 cells; assay type: cell-based, human; settings: compounds at IC50 concentrations for 24 h
Method: as §4

A549 cells = assay: Annexin V FITC/PI flow cytometric analysis of apoptosis, A549 cells; assay type: cell-based, human; settings: 24 h, compounds at IC50 values
Method: as §3

| IC50 [1] [µg/mL] | IC50 (C6 rat glioma cell line) [µg/mL] | melting point [°C] | SMILES | Early Apoptotic Cells% (C6 cells) [%] | Late Apoptotic Cells% (C6 cells) [%] | Viable Cells% (C6 cells) [%] | Akt Inhibition % C6 Cell Line (Akt [2]) [%] | IC50 [3] [µg/mL] | Akt Inhibition % A549 Cell Line (Akt [4]) [%] | IC50 A549 Cell Line ([1]; 24 h) [µg/mL] | early and late apoptotic cell population (C6 cells) [%] | IC50 C6 Cell Line (C6 rat glioma cell line; 24 h) [µg/mL] | Early Apoptotic Cells% (A549 cells) [%] | Late Apoptotic Cells% (A549 cells) [%] | Viable Cells% (A549 cells) [%] |
| --- | --- | --- | --- | --- | --- | --- | --- | --- | --- | --- | --- | --- | --- | --- | --- |
| 270 ± 95.4 (≈ 658 µM) | 16 ± 5.66 (≈ 39 µM) | 228 to 229 | Cc1ccc(-c2csc(NN=Cc3ccc(Oc4ccc(C#N)cc4)cc3)n2)cc1 [Compound 7, 2-[2-((4-(4-Cyanophenoxy)phenyl)methylene)hydrazinyl]-4-(4-methylphenyl)thiazole] | 3.2 | 14.3 | 69.2 | 70.42 ± 10.37 | 185 ± 5 (≈ 451 µM) | – | – | – | – | – | – | – |
| 198 ± 10.4 (≈ 417 µM) | > 500 | 217 to 218 | N#Cc1ccc(Oc2ccc(C=NNc3nc(-c4ccc(Br)cc4)cs3)cc2)cc1 [Compound 5, 2-[2-((4-(4-Cyanophenoxy)phenyl)methylene)hydrazinyl]-4-(4-bromophenyl)thiazole] | – | – | – | – | 163 ± 5.77 (≈ 344 µM) | – | – | – | – | – | – | – |
| 233 ± 57.7 (≈ 547 µM) | > 500 | 210 to 211 | COc1ccc(-c2csc(NN=Cc3ccc(Oc4ccc(C#N)cc4)cc3)n2)cc1 [Compound 9, 2-[2-((4-(4-Cyanophenoxy)phenyl)methylene)hydrazinyl]-4-(4-methoxyphenyl)thiazole] | – | – | – | – | 433 ± 28.9 (≈ 1020 µM) | – | – | – | – | – | – | – |
| – | – | – | N.N.[Cl][Pt][Cl] [Cisplatin, cisplatin, reference compound] | 3.3 | 25.5 | – | 77.25 ± 5.75 | – | 31.01 ± 3.18 | 17.33 ± 2.08 | 28.8 | 12.67 ± 3.06 | 2.6 | 63.5 | – |
| 92.5 ± 3.54 (≈ 312 µM) | 26.3 ± 1.53 (≈ 88.8 µM) | 235 to 236 | N#Cc1ccc(Oc2ccc(C=NNC(N)=S)cc2)cc1 [Compound A, 4-(4-Cyanophenoxy)benzaldehyde thiosemicarbazone] | 3.2 | 13.1 | 70.2 | 25.23 ± 8.62 | 225 ± 18 (≈ 759 µM) | 68.08 ± 2.48 | – | – | – | 7.6 | 45.9 | 24.2 |
| > 500 | > 500 | 204 to 205 | N#Cc1ccc(Oc2ccc(C=NNc3nc(-c4ccc5ccccc5c4)cs3)cc2)cc1 [Compound 10, 2-[2-((4-(4-Cyanophenoxy)phenyl)methylene)hydrazinyl]-4-(naphthalen-2-yl)thiazole] | – | – | – | – | > 500 | – | – | – | – | – | – | – |
| 100 ± 20 (≈ 227 µM) | > 500 | 250 to 251 | N#Cc1ccc(Oc2ccc(C=NNc3nc(-c4ccc([N+](=O)[O-])cc4)cs3)cc2)cc1 [Compound 2, 2-[2-((4-(4-Cyanophenoxy)phenyl)methylene)hydrazinyl]-4-(4-nitrophenyl)thiazole] | – | – | – | – | 71.7 ± 24.7 (≈ 162 µM) | – | – | – | – | – | – | – |
| 12 ± 1.73 (≈ 28.5 µM) | 3.83 ± 0.76 (≈ 9.09 µM) | 232 to 233 | N#Cc1ccc(Oc2ccc(C=NNc3nc(-c4ccc(C#N)cc4)cs3)cc2)cc1 [Compound 6, 2-[2-((4-(4-Cyanophenoxy)phenyl)methylene)hydrazinyl]-4-(4-cyanophenyl)thiazole] | 4.6 | 28.2 | 42.2 | 71.66 ± 4.09 | > 500 | 45.77 ± 10.58 | – | 32.8 | – | 2.3 | 36.5 | 14.4 |
| 107 ± 5.77 (≈ 259 µM) | 5.83 ± 0.76 (≈ 14.1 µM) | 249 to 250 | N#Cc1ccc(Oc2ccc(C=NNc3nc(-c4ccc(O)cc4)cs3)cc2)cc1 [Compound 8, 2-[2-((4-(4-Cyanophenoxy)phenyl)methylene)hydrazinyl]-4-(4-hydroxyphenyl)thiazole] | 1.9 | 23.8 | 49.7 | 24.99 ± 0.52 | 227 ± 11.6 (≈ 550 µM) | 57.37 ± 17.30 | – | – | – | 2.1 | 38.7 | 18.5 |
| 207 ± 23.1 (≈ 480 µM) | > 500 | 227 to 228 | N#Cc1ccc(Oc2ccc(C=NNc3nc(-c4ccc(Cl)cc4)cs3)cc2)cc1 [Compound 4, 2-[2-((4-(4-Cyanophenoxy)phenyl)methylene)hydrazinyl]-4-(4-chlorophenyl)thiazole] | – | – | – | – | 180 ± 10 (≈ 418 µM) | – | – | – | – | – | – | – |
| 193 ± 15.3 (≈ 466 µM) | > 500 | 204 to 205 | N#Cc1ccc(Oc2ccc(C=NNc3nc(-c4ccc(F)cc4)cs3)cc2)cc1 [Compound 3, 2-[2-((4-(4-Cyanophenoxy)phenyl)methylene)hydrazinyl]-4-(4-fluorophenyl)thiazole] | – | – | – | – | 170 ± 36.1 (≈ 410 µM) | – | – | – | – | – | – | – |
| 410 ± 14.1 (≈ 1030 µM) | > 500 | – | N#Cc1ccc(Oc2ccc(C=NNc3nc(-c4ccccc4)cs3)cc2)cc1 [Compound 1, 2-[2-((4-(4-Cyanophenoxy)phenyl)methylene)hydrazinyl]-4-phenylthiazole] | – | – | – | – | 197 ± 20.8 (≈ 496 µM) | – | – | – | – | – | – | – |
